Reference: article PMC8147275, “Design, Synthesis, and Molecular Docking Study of New Tyrosyl-DNA Phosphodiesterase 1 (TDP1) Inhibitors Combining Resin Acids and Adamantane Moieties” (Pharmaceuticals, 2021)
Entries after “also recorded” stand apart in the source; their conditions may differ. Read-outs that look alike come from different tables or passages of the source.

Tests used:
TDP1 [1] = molecular target: T1, TDP1 (Homo sapiens, UniProt Q9NUW8); conditions: Figure 2, known inhibitor; cited from earlier work
T1 construct: inferred from the pET 16B vector and purification on Ni-chelating resin; made in house

TDP1 [2] = molecular target: T1, TDP1; assay: TDP1 assay: recombinant TDP1 with fluorescent biosensor (FAM/BHQ1), cell-free; type: biochemical; conditions: recombinant TDP1 1.5 nM, biosensor 50 nM, 26 °C
Procedure: The primary screening of the inhibitory activities against TDP1 was performed using an in vitro cell-free system involving the recombinant TDP1 and a fluorescent reporter probe as previously described.
The recombinant TDP1 was purified to homogeneity by chromatography on Ni-chelating resin and phosphocellulose P11 as previously described, using plasmid pET 16B-TDP1, kindly provided by Dr. K.W. Caldecott (University of Sussex, United Kingdom). The TDP1 activity measurements were carried out as described. Briefly, TDP1-biosensor with fluorofore (FAM) at the 5′-end and a fluorescence quencher (BHQ1) at the 3′-end at a final concentration of 50 nM were incubated in a 200 μL volume that contained TDP1 buffer (50 mM Tris-HCl pH 8.0, 50 mM NaCl, and 7 mM β-mercaptoethanol) supplemented with purified 1.5 nM TDP1 and various concentrations of inhibitor. Fluorescence measurements (Ex485/Em520 nm) were carried out during the linear phase of the reaction (from 0 to 8 min for TDP1) every 55 sec. The reactions were incubated at a constant temperature of 26 °C in a POLARstar OPTIMA fluorimeter (BMG LABTECH, GmbH). The influence of compounds was evaluated by comparing the fluorescence increase rate in the presence of compounds with that of DMSO control wells. The data were imported into the MARS Data Analysis 2.0 program (BMG LABTECH), and the IC50 values (the concentration of a compound required to reduce the enzyme activity by 50%) were calculated.

T98G glioma cells = assay: Cytotoxicity (MTT) alone and in combination with temozolomide; type: cell-based
Procedure: (§1) Since we used the T98G glioblastoma cell line for the first time for our experiments, we first attempted to perform the cytotoxicity study in a range of concentrations from 10 to 100 µM, as we did previously with the TDP1 inhibitory compounds when working with the other cell lines. However, the cytotoxicity at 50 and 100 µM of our compounds turned out to be rather high in the T98G cell line. We then measured the cytotoxicity of individual TDP1 inhibitors at 2.5, 5, 10, and 25 µM. The studied compounds were prepared as 50 mM stock solutions in DMSO and added to T98G glioma cells at 2.5 µM to 25 µM concentrations, either individually or in combination with 1000 or 2000 µM of TMZ. […] They were therefore discarded from the later cytotoxicity studies.
Individual TDP1 inhibitors were prepared as 50 mM stock solutions in DMSO and were added to the cells at 2.5, 5, 10, or 25 μM. Temozolomide was prepared as 200 mM stock solution in DMSO and was added at 1 mM or 2 mM concentrations, either alone or in combination with TDP1 inhibitors. T98G and SNB19 glioma cells were maintained in DMem/F12 medium supplemented with 10% foetal bovine serum, l-glutamine, and penicillin/streptomycin and were split at 10,000 cells/well into the 96-well plates for cytotoxicity experiments. The drugs or drug combinations were incubated with cells for 72 h, then the MTT reagent (3-(4,5-dimethylthiazol-2-yl)-2,5-diphenyltetrazolium bromide) was added for 4 h. The produced purple formazan dye reporting the activity of cellular oxireductases was dissolved overnight in 10% solution of acidified SDS and the absorbance was measured using a Tecan plate reader. Each concentration of individual substance or each drug combination was tested in triplicate. The data obtained were processed using MS Excel software and presented as histogram plots.

[3] = Solubility observations (stock solutions, solvents, cell growth medium); type: physicochemical; conditions: light microscopy
Procedure: as §1

T1 sequence (Q9NUW8 whole entry): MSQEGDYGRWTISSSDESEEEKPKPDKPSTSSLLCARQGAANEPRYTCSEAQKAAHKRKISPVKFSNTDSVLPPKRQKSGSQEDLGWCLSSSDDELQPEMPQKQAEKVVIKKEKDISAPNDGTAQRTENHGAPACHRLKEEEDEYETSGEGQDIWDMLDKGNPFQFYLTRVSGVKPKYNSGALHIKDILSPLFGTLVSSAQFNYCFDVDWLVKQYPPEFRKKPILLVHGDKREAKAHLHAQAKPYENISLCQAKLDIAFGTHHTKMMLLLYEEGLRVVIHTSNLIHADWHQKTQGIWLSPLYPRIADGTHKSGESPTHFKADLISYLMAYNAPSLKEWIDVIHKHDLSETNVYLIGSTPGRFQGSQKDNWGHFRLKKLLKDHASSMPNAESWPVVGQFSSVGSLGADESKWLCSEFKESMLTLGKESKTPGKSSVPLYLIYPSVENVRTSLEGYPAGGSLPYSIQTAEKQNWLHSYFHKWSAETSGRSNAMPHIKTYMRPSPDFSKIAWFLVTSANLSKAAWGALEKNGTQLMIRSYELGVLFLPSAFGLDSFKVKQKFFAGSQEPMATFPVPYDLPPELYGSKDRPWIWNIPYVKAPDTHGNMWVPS

IC50 (TDP1 [2]) [nM] | Compound | other results
 | CC(=O)C1=C(O)C=C2Oc3c(-c4csc(N/N=C/CC(C)CCC=C(C)C)n4)c(O)c(C)c(O)c3[C@@]2(C)C1=O (stereo partly shown) [A] | IC50 (TDP1 [1]): 10.3 ± 0.4 nM
 | CC(C)=CCC/C(C)=C/COc1ccc2c(-c3ccc(F)cc3)cc(=O)oc2c1 [C] | IC50 (TDP1 [1]): 500 nM
190 ± 30 | CC(C)c1ccc2c(c1)CC[C@H]1[C@](C)(CNC(=O)NC34CC5CC(CC(C5)C3)C4)CCC[C@]21C [Compound 1, N-abieta-8,11,13-trien-18-yl-N’-1-adamantylurea] | 
800 ± 200 | CC(C)c1ccc2c(c1)CC[C@H]1[C@](C)(CNC(=O)NC3C4CC5CC(C4)CC3C5)CCC[C@]21C (stereo partly shown) [Compound 2, N-abieta-8,11,13-trien-18-yl-N’-2-adamantylurea] | melting point: 150 °C; sensitization of glioma T98G cells to TMZ (T98G glioma cells; combination with TMZ): most effective
1500 ± 500 | CC(C)c1ccc2c(c1)CC[C@H]1[C@](C)(CNC(=S)NC34CC5CC(CC(C5)C3)C4)CCC[C@]21C [Compound 3, N-abieta-8,11,13-trien-18-yl-N’-1-adamantylthiourea] | 
670 ± 190 | CC(C)c1ccc2c(c1)CC[C@H]1[C@](C)(CNC(=S)NC3C4CC5CC(C4)CC3C5)CCC[C@]21C (stereo partly shown) [Compound 4, N-abieta-8,11,13-trien-18-yl-N’-2-adamantylthiourea] | 
> 15000 | CC(C)c1ccc2c(c1)CC[C@H]1[C@](C)(CNC(N)=O)CCC[C@]21C [Compound 5, N-abieta-8,11,13-trien-18-ylurea] | IC50 (TDP1) (TDP1 [2]): no activity; also recorded: failed to inhibit TDP1
940 ± 180 | CC(C)c1ccc2c(c1)CC[C@H]1[C@](C)(CNC(=O)C34CC5CC(CC(C5)C3)C4)CCC[C@]21C [Compound 6, N-abieta-8,11,13-trien-18-yladamantan-1-carboxamide] | 
1800 ± 400 | CC(C)c1ccc2c(c1)CC[C@H]1[C@](C)(CNC(=O)C3C4CC5CC(C4)CC3C5)CCC[C@]21C (stereo partly shown) [Compound 7, N-abieta-8,11,13-trien-18-yladamantan-2-carboxamide] | behaviour of stock solution dissolved in cell growth medium [3]: formed visible micelles
2300 ± 800 | CC(C)c1ccc2c(c1)CC[C@H]1[C@](C)(CNC(=S)C34CC5CC(CC(C5)C3)C4)CCC[C@]21C [Compound 8, N-abieta-8,11,13-trien-18-yladamantan-1-carbothioamide] | behaviour of stock solution dissolved in cell growth medium [3]: formed visible micelles
570 ± 160 | CC(C)c1ccc2c(c1)CC[C@H]1[C@](C)(NC(=O)NC34CC5CC(CC(C5)C3)C4)CCC[C@]21C [Compound 9, N-1-adamantyl-N’-[(1R,4aS,10aR)-7-isopropyl-1,4a-dimethyl-1,2,3,4,4a,9,10,10a-octahydrophenanthren-1-yl]urea] | 
590 ± 150 | CC(C)c1ccc2c(c1)CC[C@H]1[C@](C)(NC(=O)NC3C4CC5CC(C4)CC3C5)CCC[C@]21C (stereo partly drawn) [Compound 10, N-2-adamantyl-N’-[(1R,4aS,10aR)-7-isopropyl-1,4a-dimethyl-1,2,3,4,4a,9,10,10a-octahydrophenanthren-1-yl]urea] | 
1700 ± 600 | CC(C)C1=CC2=CC[C@H]3[C@](C)(NC(=O)NC45CC6CC(CC(C6)C4)C5)CCC[C@]3(C)C2CC1 (stereo partly drawn) [Compound 11, N-1-adamantyl-N’-[(1R,4aR,10aR)-7-isopropyl-1,4a-dimethyl-1,2,3,4,4a,4b,5,6,10,10a-decahydrophenanthren-1-yl]urea] | 
1400 ± 300 | CC(C)C1=CC2=CC[C@H]3[C@](C)(NC(=O)NC4C5CC6CC(C5)CC4C6)CCC[C@]3(C)C2CC1 (stereo partly drawn) [Compound 12, N-2-adamantyl-N’-[(1R,4aR,10aR)-7-isopropyl-1,4a-dimethyl-1,2,3,4,4a,4b,5,6,10,10a-decahydrophenanthren-1-yl]urea] | 
 | CC(C)CCCC(C)CCOC(=O)C12CC3CC(CC(C3)C1)C2 (stereo not shown) [E] | IC50 (TDP1 [1]): 920 nM
 | Cn1nnc2c(C(N)=O)ncn2c1=O [TMZ, temozolomide] | cells surviving the treatment (T98G glioma cells; TMZ alone 1000 µM, 72 h, MTT): ~ 95%; inhibition of cell viability (T98G glioma cells; TMZ alone 2000 µM, 72 h, MTT): ~ 40%
